Laboratory results taken from paper PMC7693203 (Epilepsia, 2020).
Read-outs that look alike come from different tables or passages of the source.

[1] = trial 17074, healthy volunteers, N = 16

C=C(C)[C@@H]1CCC(C)=C[C@H]1c1c(O)cc(CCCCC)cc1O [CBD, cannabidiol]
AEs leading to withdrawal [1]: 0 (0) n (%) | Abdominal pain [1]: 0 (0) n (%) | Death [1]: 0 (0) n (%) | Diarrhea [1]: 3 (19) n (%) | Fatigue [1]: 0 (0) n (%) | Flatulence [1]: 0 (0) n (%) | Headache [1]: 2 (13) n (%) | Hepatic enzyme increased [1]: 0 (0) n (%) | Nausea [1]: 4 (25) n (%) | Patient with at least 1 AE [1]: 16 (100) n (%) | Serious AEs [1]: 0 (0) n (%) | Severe AEs [1]: 0 (0) n (%) | Somnolence [1]: 4 (25) n (%) | Chromaturia (trial 17074, healthy volunteers, N = 16, rifampicin coadministered): 13 (81) n (%) | healthy volunteers reporting AEs (trial 17074, overall, 16 subjects, CBD as two single doses): 100% | healthy volunteers reporting AEs (trial 17074, after CBD alone, during RIF treatment, or after CBD and RIF, of 16): 44% | elevations in transaminase levels as AEs or laboratory evaluations (trial 17074, result in words): no reports
